# Reference: patent publication US20090017006A1, “USE OF A COMPOUND FOR ENHANCING THE EXPRESSION OF MEMBRANE PROTEINS ON THE CELL SURFACE” (BIODEVELOPS PHARMA ENTWICKLUNG GMBH, priority 2005, published 2009)
# Entries after “also recorded” stand apart in the source; their conditions may differ. Residues, ends and D or L forms follow the SMILES beside them. *: point of attachment. Cbz = O=C(OCc1ccccc1)*
# Assays:
# Assay type in all cases: cell-based
# CFTR-ΔF508 [1] = assay: FACS monitoring of expression of GFP-tagged CFTR-ΔF508 in HEK293 cells; settings: for CFTR-ΔF508-associated fluorescence (expression level) versus control: 24 h
# Description: (§1) Cultured HEK293 cells were transfected with plasmids encoding CFTR or CFTR-ΔF508 (GFP-tagged) and/or co-transfected with plasmids encoding USP4 (or an appropriate control plasmid) by using the CaPO4-precipitation method. Sixteen hours after transfection the cells were treated with varying concentrations of compounds. At a specific time point (here 24 h) the cells are trypsinized, fixed in ethanol, permeabilized and stained with propidium iodide (PI). The stained cells are subjected to FACS analysis
# Because CFTR is tagged with a fluorescent protein, expression in individual cells can be monitored by fluorescence activated cell sorting (FACS). By contrast with fluorescence microscopy (where individual cells are picked), FACS allows to survey the entire cell population. In addition, FACS has the advantage that it allows for reasonable sample throughput; finally, automation and scale-up is readily possible.
# The original data set is shown on the right hand side of the figures, respectively (see e.g. FIG. 2c): the x-axis is the propidium iodide fluorescence (note that the scale is linear). The y-axis is the GFP-fluorescence (=fluorescence associated with CFTR; note that the scale is logarithmic) and each dot corresponds to a cell. The quadrangle delineates the cells that express CFTR.
# HEK293 cells = assay: FACS propidium iodide staining: cell cycle distribution / apoptosis of transfected HEK293 cells
# Description: as §1
# Transiently transfected HE 293 cells were fixed in ethanol 24 h after transfection as mentioned above and then stained with propidium iodide to label the DNA: the rationale was to examine the distribution of cells in the cell cycle (=to see if the expression of CFTR or of CFTR-ΔF508 was toxic or if the compounds employed killed the cells/drove them into apoptosis).
# One can plot the cell counts against the propidium iodide fluorescence of the transfected cells (such as shown in, for example, FIG. 2b): This gives a peak of cells (denoted by M1) that have a 2n content of DNA (G1-cells), a shoulder of cells that have a DNA content of larger than 2n (denoted by M3 and representing cells that are in S-phase) and a second peak of cells that have a DNA content of 4n (denoted by M2 and representing cells in G2 and M-phase).
# CFTR-ΔF508 [2] = assay: Immunoblot for GFP-tagged CFTR-ΔF508 expressed in HEK293 cells (endoglycosidase H treated extracts); set-up: accumulation of CFTR-ΔF508 (intensity of staining compared to control lane 4): unit of the concentration uncertain; settings: for accumulation of CFTR-ΔF508 (intensity of staining compared to control lane 4): treated overnight (16 h)
# Description: HEK293 cells (1*10^6 cells) were transfected with plasmids encoding CFTR or CFTR-ΔF508 (GFP-tagged) and/or co-transfected with effector plasmids. After 16 h, the cells were treated with the varying concentrations of compounds. After 24 h, the cells were harvested in phosphate-buffered saline, lysed by a freeze-thaw cycle and homogenized by sonication. The homogenate was resuspended in reducing Laemmli sample buffer (50 mM Tris.Hcl, pH 6.8, 20% glycerol, 0.1% bromophenol blue, 2% SDS and 20 mM dithiothreitol); aliquots (15% of the original culture) were resolved on a denaturing polyacrylamide gel (monomer concentration in the stacking gel and in the running gel 4 and 8% respectively) and electrophoretically transferred to a nitrocellulose membrane. Immunodetection was done with an antiserum directed against GFP as the primary antibody and an anti-rabbit IgG coupled to horseradish peroxidase as the secondary antibody.
# In a first example, Membranes from transfected cells were prepared and immunoblotted for GFP-tagged CFTR or CFTR-ΔF508, respectively (by using an antibody directed against the fluorescent protein).
# The membrane extract was also treated endoglycosidase H. The rationale for this experiment is as follows: membrane proteins are core glycosylated in the endoplasmatic reticulum. Core glycosylation is sensitive to endoglycosidase H. If the protein has reached the Golgi (and then trafficked to the plasma membrane), it acquires additional sugar moieties and becomes resistant to endoglycosidase H. It is evident from lane 3 in FIG. 1 that endoglycosidase H treatment reduces the apparent size of CFTR; thus, the bulk of the protein is still in the ER. The following lanes examine the expression of CFTR-ΔF508 (all extracts were treated with endoglycosidase H): lane 4 is the control, that is cells expressing CFTR-ΔF508; in lanes 5, 6, 7 and 8 cells expressing CFTR-ΔF508 were treated overnight (i.e. for 16 h) with 100 nM MG132, […], […] and 100 nM bortezomib, respectively.
# [3] = cells cotransfected with plasmid driving expression of USP4
compound,measurement,setting,value
"CC(C)C[C@H](NC(=O)[C@H](Cc1ccccc1)NC(=O)c1cnccn1)B(O)O [Bortezomib, N-(2-pyrazine)carbonyl-L-phenylalanine-L-leucine-boronic acid]",CFTR-ΔF508-associated fluorescence (expression level) versus control,"CFTR-ΔF508 [1]; 10 nM, HEK293 cells",expression of CFTR is increased; also recorded: substantially increases the level of CFTR-ΔF508
same,CFTR-ΔF508-associated fluorescence (expression level) versus control,"CFTR-ΔF508 [1]; 100 nM, HEK293 cells",expression of CFTR is increased
same,cell cycle distribution of CFTR-ΔF508 expressing cells versus control,"HEK293 cells; 10 nM, HEK293 cells",essentially the same as the one shown in control cells
same,number of cells with low propidium iodide fluorescence (apoptotic cells),"HEK293 cells; 100 nM, HEK293 cells",number of cells with low propidium iodide fluorescence increases
same,peak of the G1-cells (M1) in cell cycle distribution,"HEK293 cells; 100 nM, HEK293 cells",greatly reduced
same,number of cells with low propidium iodide fluorescence (apoptotic cells),"HEK293 cells; 1 μM, HEK293 cells",number of cells with low propidium iodide fluorescence increases
same,peak of the G1-cells (M1) in cell cycle distribution,"HEK293 cells; 1 μM, HEK293 cells",greatly reduced
same,"relative effectiveness in accumulation of CFTR-ΔF508, 100 nM versus 1 μM","CFTR-ΔF508 [2]; 100 nM compared with 1 μM, 16 h",more effective than 1 μM bortezomib
same,accumulation of CFTR-ΔF508 (intensity of staining compared to control lane 4),CFTR-ΔF508 [2]; 100 nM,led to the accumulation of CFTR-ΔF508
same,accumulation of CFTR-ΔF508 (intensity of staining compared to control lane 4),CFTR-ΔF508 [2]; 1 (unit uncertain),led to the accumulation of CFTR-ΔF508
CC(C)C[C@@H](C=O)NC(=O)[C@H](CC(C)C)NC(=O)[C@H](CC(C)C)NC(=O)OCc1ccccc1 [MG132] (Cbz-Leu-Leu-Leu-aldehyde),CFTR-ΔF508-expression,"CFTR-ΔF508 [1]; 1 μg, HEK293 cells",enhances CFTR-ΔF508-expression
same,apoptotic effect,"HEK293 cells; 1 μg, HEK293 cells",pronounced apoptotic effect
O=C1N[C@@H]2[C@@H](O)[C@@H](O)[C@H](O)[C@@H](CO)N2C1=O [kifunensine],accumulation of CFTR-ΔF508 (intensity of staining compared to control lane 4),CFTR-ΔF508 [2]; 20 (unit uncertain),led to the accumulation of CFTR-ΔF508
"USP-4: deubiquitinating enzyme (ubiquitin specific protease), co-expressed in cells from a transfected plasmid",CFTR-ΔF508-associated fluorescence versus control,CFTR-ΔF508 [1]; [3],CFTR-ΔF508-associated fluorescence increases
same,"toxicity / apoptosis (cell cycle distribution, sub-2n fraction)",HEK293 cells; [3],not toxic and does not cause apoptosis
